This is an account of results in patent US11453660B2, “Androgen receptor and glucocorticoid receptor modulators” (ONCOSTELLAE, S.L., priority 2017, dated 2022).

The structures appear in SMILES notation.

What is called Kb is the affinity of an antagonist, worked out from how it opposes an agonist.

The target of the assay is T1, AR-Receptor (Homo sapiens, UniProt P10275).
T1 sequence (P10275 1-920 Q868H): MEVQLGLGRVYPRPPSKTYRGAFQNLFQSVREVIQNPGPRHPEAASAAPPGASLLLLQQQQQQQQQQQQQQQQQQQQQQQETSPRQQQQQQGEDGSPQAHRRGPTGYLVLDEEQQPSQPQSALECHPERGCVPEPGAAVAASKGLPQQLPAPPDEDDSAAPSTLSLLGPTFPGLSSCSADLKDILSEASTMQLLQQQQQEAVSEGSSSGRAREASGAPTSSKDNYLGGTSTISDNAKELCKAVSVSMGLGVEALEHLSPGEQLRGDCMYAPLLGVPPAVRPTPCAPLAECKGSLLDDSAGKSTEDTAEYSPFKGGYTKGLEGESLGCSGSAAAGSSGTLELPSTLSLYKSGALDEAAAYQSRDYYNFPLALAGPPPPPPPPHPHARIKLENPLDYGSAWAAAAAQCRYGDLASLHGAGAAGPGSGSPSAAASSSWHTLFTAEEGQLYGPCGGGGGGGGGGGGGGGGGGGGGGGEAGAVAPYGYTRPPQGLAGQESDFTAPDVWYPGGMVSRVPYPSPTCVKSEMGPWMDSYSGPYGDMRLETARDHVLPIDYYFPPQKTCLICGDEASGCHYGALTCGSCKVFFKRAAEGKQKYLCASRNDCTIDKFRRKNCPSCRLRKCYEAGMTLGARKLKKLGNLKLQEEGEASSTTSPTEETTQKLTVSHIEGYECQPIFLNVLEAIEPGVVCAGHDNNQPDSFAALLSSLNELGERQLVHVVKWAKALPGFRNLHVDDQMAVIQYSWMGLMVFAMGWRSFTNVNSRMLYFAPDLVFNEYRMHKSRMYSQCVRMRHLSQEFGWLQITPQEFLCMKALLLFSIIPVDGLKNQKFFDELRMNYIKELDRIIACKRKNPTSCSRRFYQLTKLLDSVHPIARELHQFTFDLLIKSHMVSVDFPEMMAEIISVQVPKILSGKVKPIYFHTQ
The experiment in a line: Functional Assay AR-Receptor (MDA-MB-453 cells, luciferase). Type of assay: cell-based. The note with it: antagonist effect in the presence of DHT 1 nM, 24 h, luciferase luminescence, read-out: AR antag KB. An outline of the steps:
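MDA-MB-453 cells, 8000/well, were switched to medium with 0.1% FBS and exposed to compounds for 24 h at 37 °C. Antagonist mode used 1 nM DHT. After lysis and a freeze-thaw cycle, luciferase luminescence was read.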
For the compound `CC1=C(C(=O)C2CC2)C(c2csc3c(C#N)cccc23)C(C(=O)OCC2CC2)=C(N)N1` (stereo not shown) [Example D31, Cyclopropylmethyl 2-amino-4-(7-cyanobenzo[b]thiophen-3-yl)-5-(cyclopropanecarbonyl)-6-methyl-1,4-dihydropyridine-3-carboxylate], the Kb was in the range of 100 to 1000 nM.

Take `CC(=O)C1=C(C)NC(N)=C(C(=O)OCc2cccc(F)c2)C1c1csc2c(C#N)cccc12` (stereo not shown) [Example D32, 3-Fluorobenzyl 5-acetyl-2-amino-4-(7-cyanobenzo[b]thiophen-3-yl)-6-methyl-1,4-dihydropyridine-3-carboxylate]: the antagonist dissociation constant (Kb) was in the range of 100 to 1000 nM.

With `CC1=C(C(=O)OC2CC2)C(c2csc3c(C#N)cccc23)C(C(=O)OCC2CC2)=C(N)N1` (stereo not shown) [Example D37, 5-Cyclopropyl 3-(cyclopropylmethyl) 2-amino-4-(7-cyanobenzo[b]thiophen-3-yl)-6-methyl-1,4-dihydropyridine-3,5-dicarboxylate], the Kb lay in the range of 100 to 1000 nM.

As to `COC(=O)C1=C(C)NC(N)=C(C(=O)OCC2CC2)C1c1csc2c(C#N)cc(F)cc12` (stereo not shown) [Example D39, 3-(Cyclopropylmethyl) 5-methyl 2-amino-4-(7-cyano-5-fluorobenzo[b]thiophen-3-yl)-6-methyl-1,4-dihydropyridine-3,5-dicarboxylate], the Kb lay in the range of 100 to 1000 nM.

Turning to `COC(=O)C1=C(C)NC(N)=C(C(=O)OC(C)C)C1c1csc2c(C#N)cccc12` (stereo not shown) [Example D41, 3-Isopropyl 5-methyl 2-amino-4-(7-cyanobenzo[b]thiophen-3-yl)-6-methyl-1,4-dihydropyridine-3,5-dicarboxylate], the Kb was less than 100 nM.

As for `COC(=O)C1=C(C)NC(N)=C(C(=O)OCC(C)(C)C)C1c1csc2c(C#N)cccc12` (stereo not shown) [Example D43, 5-Methyl 3-neopentyl 2-amino-4-(7-cyanobenzo[b]thiophen-3-yl)-6-methyl-1,4-dihydropyridine-3,5-dicarboxylate], the Kb is not below 1000 nM.

As to `CC1=C(C(=O)OCC2CC2)C(c2csc3c(C#N)cccc23)C(C(=O)OCC2CC2)=C(N)N1` (stereo not shown) [Example D46, Bis(cyclopropylmethyl) 2-amino-4-(7-cyanobenzo[b]thiophen-3-yl)-6-methyl-1,4-dihydropyridine-3,5-dicarboxylate], the Kb was not below 1000 nM.

Turning to `C#CCOC(=O)C1=C(C)NC(N)=C(C(=O)OCC2CC2)C1c1csc2c(C#N)cccc12` (stereo not shown) [Example D47, 3-(Cyclopropylmethyl) 5-(prop-2-yn-1-yl) 2-amino-4-(7-cyanobenzo[b]thiophen-3-yl)-6-methyl-1,4-dihydropyridine-3,5-dicarboxylate], the antagonist dissociation constant (Kb) was not below 1000 nM.

`COC(=O)C1=C(C2CC2)NC(C)=C(C(C)=O)C1c1csc2ncccc12` (stereo not shown) [Example J23, Methyl 5-acetyl-2-cyclopropyl-6-methyl-4-(thieno[2,3-b]pyridin-3-yl)-1,4-dihydropyridine-3-carboxylate]: the Kb is not below 1000 nM.

Consider `COC(=O)C1=C(C2CC2)NC(C)=C(C(C)=O)C1c1csc2c(Br)cccc12` (stereo not shown) [Example J26, Methyl 5-acetyl-4-(7-bromobenzo[b]thiophen-3-yl)-2-cyclopropyl-6-methyl-1,4-dihydropyridine-3-carboxylate], for which the Kb lay in the range of 100 to 1000 nM.

Consider `CC(=O)C1=C(C)NC(C2CC2)=C(C(=O)OCc2ccncc2)C1c1csc2c(Br)cccc12` (stereo not shown) [Example J41, Pyridin-4-ylmethyl 5-acetyl-4-(7-bromobenzo[b]thiophen-3-yl)-2-cyclopropyl-6-methyl-1,4-dihydropyridine-3-carboxylate], for which the Kb lay within 100 to 1000 nM.

As to `CC(=O)C1=C(C)NC(C2CC2)=C(C(=O)OCc2ccc(F)cc2)C1c1csc2ncccc12` (stereo not shown) [Example J42, 4-fluorobenzyl 5-acetyl-2-cyclopropyl-6-methyl-4-(thieno[2,3-b]pyridin-3-yl)-1,4-dihydropyridine-3-carboxylate], the antagonist equilibrium constant (Kb) was less than 100 nM.

Consider `CC(=O)C1=C(C)NC(C)=C(C(=O)OCc2ccc(-c3ccncc3)cc2)C1c1csc2ncccc12` (stereo not shown) [Example L1, 4-(pyridin-4-yl)benzyl 5-acetyl-2,6-dimethyl-4-(thieno[2,3-b]pyridin-3-yl)-1,4 dihydropyridine-3-carboxylate], for which the Kb is 100 to 1000 nM.

For the compound `CC(=O)C1=C(C)NC(C)=C(C(=O)OCc2ccc(-c3cccnc3)cc2)C1c1csc2ncccc12` (stereo not shown) [Example L2, 4-(pyridin-3-yl)benzyl 5-acetyl-2,6-dimethyl-4-(thieno[2,3-b]pyridin-3-yl)-1,4-dihydropyridine-3-carboxylate], the Kb lay in the range of 100 to 1000 nM.

Take `CC(=O)C1=C(C)NC(C)=C(C(=O)OCc2cccc(-c3ccncc3)c2)C1c1csc2ncccc12` (stereo not shown) [Example L3, 3-(pyridin-4-yl)benzyl 5-acetyl-2,6-dimethyl-4-(thieno[2,3-b]pyridin-3-yl)-1,4-dihydropyridine-3-carboxylate]: the Kb fell in the range of 100 to 1000 nM.

As to `CC(=O)C1=C(C)NC(C)=C(C(=O)OCc2cccc(-c3cccnc3)c2)C1c1csc2ncccc12` (stereo not shown) [Example L4, 3-(pyridin-3-yl)benzyl 5-acetyl-2,6-dimethyl-4-(thieno[2,3-b]pyridin-3-yl)-1,4-dihydropyridine-3-carboxylate], the Kb fell in the range of 100 to 1000 nM.
